Experimental data from patent publication EP0359454B1, “CC-1065 analogs having two CPI subunits” (PHARMACIA & UPJOHN COMPANY, priority 1988, dated 1990).
In brackets after ≈: the same amount, converted by molar mass.

Assays:
[1] = test system: L-1210 Leukemia; assay: L-1210 leukemia in vivo, IV drug vs IP tumor, dosed on day 1; parameters: species or system Male BDF1 mice; conditions: for OD (optimum dose): i.v. dose on day 1
From the text: (§1) Table 3 presents data comparing [S-(R*,R*)]-6,6′-[carbonylbis(imino-1H-indole-5,2-dicarbonyl)]bis[8-chloromethyl)-3,6,7,8-tetrahydro-1-methyl-benzo[1,2-b:4,3-b′]dipyrrol-4-ol (Compound 1) with (7bR)-N-[2-[(4,5,8,8a-tetrahydro-7-methyl-4-oxocyclopropa-[C]pyrrolo[3,2-e]indol-2(1H)0yl)carbonyl]-1H-indol-5-yl]-2-benzofurancarboxamide (U-73,975) in the other murine systems where the compounds have been run jointly.
(§2) The results set forth in Tables 1 and 4 were obtained using standard well known procedures (In Vivo Cancer, Models, NIH Publication No. 84-2635, 1984).
(§3) T/C refers to median life span of treated mice divided by median life span of control mice times 100.

[2] = test system: L1210 leukemia cells; assay: In vitro L1210 cell growth inhibition; type: cell-based, murine; conditions: Mus musculus, concentration of drug which inhibits cell growth 50%, read-out: ID50 (the source's name)
From the text: as §1

[3] = test system: L-1210 i.p.; assay: L-1210 i.p. tumor, i.p. dose on days 1,5,9; type: in vivo, murine; conditions: for OD (optimum dose): i.p. dose on days 1,5,9; for cures: i.p. dose on days 1,5,9, at optimum dose, survival 30 days = cured
From the text: as §1, §2, §3

[4] = test system: L-1210 sc; assay: L-1210 sc tumor, i.p. dose on day 1; type: in vivo, murine; conditions: for OD (optimum dose) / cures: L-1210 sc; for OD (optimum dose): i.p. dose 1 on day 1; for cures: i.p. dose 1 on day 1, at optimum dose, survival 30 days = cured
From the text: as §1, §2, §3

[5] = test system: B-16 i.p.; assay: B-16 i.p. tumor, i.v. dose on day 1; type: in vivo, murine; conditions: for OD (optimum dose): i.v. dose on day 1; for T/C: i.v. dose on day 1, at optimum dose
From the text: The compounds of Formula I are particularly useful as antitumor agents. […] These murine test systems are predictive for clinically useful human antitumor agents (see, for examle, A. Geldin et al, European J. Cancer, Vol. 17, pp 129-142, 1981; J.M. Vendetti, Cancer Treatment Reports, Vol. 67, pp. 767-772, 1983; and J.M. Vendetti et al, Advances in Pharmacology and Chemotherapy, Vol. 20, pp. 1-20, 1984), and, therefore, the compounds of the subject invention (Formula I) will be useful in the control and treatment of susceptible neoplastic (cancer) diseases, including susceptible leukemics, in humans when given, for example, intravenously in doses of 0.001 µg/kg to about 10 mg/kg of body weight per day, the exact dose depending on the age, weight, and condition of the patient, and on the frequency of administration.
as §1, §3

[6] = test system: Lewis Lung i.v.; assay: Lewis Lung i.v. tumor, i.v. dose on days 1,5,9; type: in vivo, murine; conditions: for OD (optimum dose): i.v. dose on days 1,5,9; for T/C: i.v. dose on days 1,5,9, at optimum dose
From the text: as §1, §3

[7] = Delayed death in animals without tumor; type: in vivo, murine; conditions: NO TUMOR
From the text: as §1

[8] = in vitro and in vivo, depending upon the particular test system; cited from earlier work
[9] = IV drug vs IP tumor, dosed on day 1, animals surviving 30 days are considered cured, at the dose (µg/kg)
[10] = IV drug vs IP tumor, dosed on day 1, T/C = median survival treated/control x 100, each value at the dose (1-600 µg/kg)

Row | Structure (SMILES) | cures [1, 9] | OD (optimum dose) ([1]; L-1210 i.p.) [mg/kg] | cures ([1]; L-1210 i.p., i.v. dose on day 1, at optimum dose, animals which survive 30 days are considered cured) | In vivo L1210 activity (in words) ([1]; at 15 µg/kg) | IC50 [2] [ng/mL] | OD (optimum dose) [3] [mg/kg] | cures [3] | OD (optimum dose) [4] [mg/kg] | cures [4] | Activity compared with U-73,975 (in words) ([4]; subcutaneous L1210 assay, over several dose ranges) | OD (optimum dose) [5] [mg/kg] | T/C [5] | OD (optimum dose) [6] [mg/kg] | T/C [6] | Delayed death [7] | Delayed death ([7]; listed as Cpd 1) | Best T/C [1, 10] | Best T/C ([1]; L-1210 i.p., i.v. dose on day 1, at optimum dose) | Delayed death ([7]; listed as U-73-975) | factor by which less potent than CC-1065 [8]
1 | Cc1c[nH]c2c(O)cc3c(c12)[C@H](CCl)CN3C(=O)c1cc2cc(NC(=O)Nc3ccc4[nH]c(C(=O)N5C[C@@H](CCl)c6c5cc(O)c5[nH]cc(C)c65)cc4c3)ccc2[nH]1 [Compound 1, [S-(R*,R*)]-6,6′-[carbonylbis(imino-1H-indole-5,2-dicarbonyl)]bis[8-chloromethyl)-3,6,7,8-tetrahydro-1-methylbenzo[1,2-b:4,3-b′]dipyrrol-4-ol] | 4/6 cures | 0.01 to 0.015 | (4/6) | highly curative | 0.001 (≈ 0.00123 nM) | 0.004 | (3/6) | 0.01 to 0.025 | (6/6) | superior activity | 0.015 | 167 | 0.004 | 168 | not to cause delayed death | No Delayed Death | – | – | – | –
2 | Cc1c[nH]c2c1[C@@]13C[C@@H]1CN(C(=O)c1cc4cc(NC(=O)c5cc6ccccc6o5)ccc4[nH]1)C3=CC2=O [U-73,975, (7bR)-N-[2-[(4,5,8,8a-tetrahydro-7-methyl-4-oxocyclopropa-[C]pyrrolo[3,2-e]indol-2(1H)0yl)carbonyl]-1H-indol-5-yl]-2-benzofurancarboxamide, reference compound] | – | 0.1 | – | – | – | 0.02 | (4/6) | 0.1 | (4/6) | – | 0.1 | 160 | 0.025 | 147 | not to cause delayed death | – | 213 | 213 | No Delayed Death | –
3 | Cc1c[nH]c2c(O)cc3c(c12)[C@H](CCl)CN3C(=O)c1cc2c3c(ccc2[nH]1)N(C(=O)N1CCc2c1ccc1[nH]c(C(=O)N4C[C@@H](CCl)c5c4cc(O)c4[nH]cc(C)c54)cc21)CC3 [Compound 16, [S-(R*,R*)]-6,6′-[carbonylbis[(7,8-dihydrobenzo[1,2-b:4,3-b′]dipyrrole-6,2(3H)-diyl)carbonyl]]bis[8-chloromethyl)-3,6,7,8-tetrahydro-1-methyl-benzo[1,2-b:4,3b′]dipyrrol-4-ol] | 1/6 | – | – | – | 0.002 (≈ 0.0023 nM) | – | – | – | – | – | – | – | – | – | – | – | 243 | – | – | –
4 | COc1c(O)c2c(c3cc(C(=O)N4CCc5c4c(O)c(OC)c4[nH]c(C(=O)N6CC(COC(C)=O)c7c6cc(O)c6[nH]cc(C)c76)cc54)[nH]c13)CCN2C(N)=O (stereo not drawn) [AAP, 7-[[7-[[1-[(acetyloxy)methyl]-1,6-dihydro-5-hydroxy-8-methylbenzo[1,2-b:4,3-b′]dipyrrol-3(2H)-yl]carbonyl]-1,6-dihydro-4-hydroxy-5-methoxybenzo[1,2:4,3-b′]-dipyrrol-3(2H)-yl]carbonyl]-1,6-dihydro-4-hydroxy-5-methoxy-benzo[1,2-b:4,3-b′]dipyrrole-3(2H)-carboxamide] | – | – | – | – | – | – | – | – | – | – | – | – | – | – | – | – | – | – | – | 10^3 to 10^4
